According to patent publication US10202361B2, “Pyridazinones as herbicides” (E I DU PONT DE NEMOURS AND COMPANY, priority 2014, dated 2019):
Like-named read-outs stand apart in the source and are kept apart here.

Legend:
Type in all cases: in vivo
[1] = tested on: barnyardgrass (Echinochloa crus-galli); assay: Test A pre-/postemergence greenhouse herbicide test; conditions: Echinochloa crus-galli, 240 h, 0 to 100 scale (0 no effect, 100 complete control), approx. 10 d, read-out: Plant response rating, Barnyardgrass; for pest or weed control at 125 g/ha: 125 g ai/ha; for pest or weed control at 500 g/ha: 500 g ai/ha
Outline: (§1)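 Injury was scored visually on a 0–100 scale (100 = complete control) about 10 d after spraying, relative to untreated plants. Compounds were formulated in solvent plus surfactant and applied as soil spray preemergence or to 2–10 cm, one- to two-leaf seedlings postemergence.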

corn (Zea mays) = assay: as above; conditions: Zea mays, 240 h, 0 to 100 scale (0 no effect, 100 complete control), approx. 10 d; for Corn plant response rating (crop injury, 0 = no effect, 100 = complete kill) at 125 g/ha: 125 g ai/ha; for Corn plant response rating (crop injury, 0 = no effect, 100 = complete kill) at 500 g/ha: 500 g ai/ha
Outline: as §1

[2] = tested on: crabgrass, Large (large crabgrass, Digitaria sanguinalis); assay: as above; conditions: Digitaria sanguinalis, 240 h, 0 to 100 scale (0 no effect, 100 complete control), approx. 10 d, read-out: Plant response rating, Crabgrass, Large; for pest or weed control at 125 g/ha: 125 g ai/ha; for pest or weed control at 500 g/ha: 500 g ai/ha
Outline: as §1

[3] = tested on: foxtail, giant (giant foxtail, Setaria faberii); assay: as above; conditions: Setaria faberi, 240 h, 0 to 100 scale (0 no effect, 100 complete control), approx. 10 d, read-out: Plant response rating, Foxtail, Giant; for pest or weed control at 125 g/ha: 125 g ai/ha; for pest or weed control at 500 g/ha: 500 g ai/ha
Outline: as §1

[4] = tested on: morningglory (Ipomoea spp.); assay: as above; conditions: Ipomoea, post-emergence, 240 h, Postemergence, 0 to 100 scale (0 no effect, 100 complete control), approx. 10 d, read-out: Plant response rating, Morningglory
Outline: as §1

[5] = tested on: pigweed (Amaranthus retroflexus); assay: as above; conditions: Amaranthus retroflexus, 240 h, 0 to 100 scale (0 no effect, 100 complete control), approx. 10 d, read-out: Plant response rating, Pigweed; for pest or weed control at 125 g/ha: 125 g ai/ha; for pest or weed control at 500 g/ha: 500 g ai/ha
Outline: as §1

[6] = tested on: velvetleaf (Abutilon theophrasti); assay: as above; conditions: Abutilon theophrasti, 240 h, 0 to 100 scale (0 no effect, 100 complete control), approx. 10 d, read-out: Plant response rating, Velvetleaf; for pest or weed control at 125 g/ha: 125 g ai/ha; for pest or weed control at 500 g/ha: 500 g ai/ha
Outline: as §1

[7] = tested on: wheat (Triticum aestivum); assay: as above; conditions: Triticum aestivum, 240 h, 0 to 100 scale (0 no effect, 100 complete control), approx. 10 d, read-out: Plant response rating, Wheat; for plant injury at 125 g/ha: 125 g ai/ha; for plant injury at 500 g/ha: 500 g ai/ha
Outline: as §1

rice (Oryza sativa) = assay: Test B flooded paddy test; conditions: Oryza sativa, 312 h; Flood, 125 g ai/ha; scale of 0 to 100, 0 is no effect, 100 is complete control; 13 to 15 d; read-out: Plant response rating, Rice
Outline: (§2)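 Visual ratings, 0 meaning no effect and 100 complete control, were made relative to untreated controls 13–15 d after treatment in a greenhouse. Treatment was by addition to paddy water 3 cm above the soil, maintained for the test, on 2-leaf-stage plants.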

[8] = tested on: sedge, umbrella (small-flower umbrella sedge, Cyperus difformis); assay: Test B flooded paddy test; conditions: Cyperus difformis, 312 h; Flood, 125 g ai/ha; scale of 0 to 100, 0 is no effect, 100 is complete control; 13 to 15 d; read-out: Plant response rating, Sedge, Umbrella
Outline: as §2

[9] = tested on: chickweed (common chickweed, Stellaria media); assay: Test C postemergence greenhouse herbicide test

With `COc1cc(=O)n(-c2ccc(F)cc2)nc1Cc1ccnc(C(F)(F)F)c1` [Compound 17, 2-(4-fluorophenyl)-5-methoxy-6-[[2-(trifluoromethyl)-4-pyridinyl]methyl]-3 (2H)-pyridazinone] the pest or weed control at 125 g/ha ([1]; post-emergence, Postemergence) was 80%, the pest or weed control at 500 g/ha ([1]; post-emergence, Postemergence) was 90% and the pest or weed control at 125 g/ha ([1]; pre-emergence, Preemergence) was 80%. It also gave a pest or weed control at 500 g/ha ([1]; pre-emergence, Preemergence) of 100%, a Corn plant response rating (crop injury, 0 = no effect, 100 = complete kill) at 125 g/ha (corn (Zea mays); post-emergence, Postemergence) of 60% and a Corn plant response rating (crop injury, 0 = no effect, 100 = complete kill) at 500 g/ha (corn (Zea mays); post-emergence, Postemergence) of 80%. It also gave a Corn plant response rating (crop injury, 0 = no effect, 100 = complete kill) at 125 g/ha (corn (Zea mays); pre-emergence, Preemergence) of 40%, a Corn plant response rating (crop injury, 0 = no effect, 100 = complete kill) at 500 g/ha (corn (Zea mays); pre-emergence, Preemergence) of 50% and a pest or weed control at 125 g/ha ([2]; post-emergence, Postemergence) of 90%. It also gave a pest or weed control at 500 g/ha ([2]; post-emergence, Postemergence) of 90%, a pest or weed control at 125 g/ha ([2]; pre-emergence, Preemergence) of 100% and a pest or weed control at 500 g/ha ([2]; pre-emergence, Preemergence) of 100%. It also gave a pest or weed control at 125 g/ha ([3]; post-emergence, Postemergence) of 90%, a pest or weed control at 500 g/ha ([3]; post-emergence, Postemergence) of 90% and a pest or weed control at 125 g/ha ([3]; pre-emergence, Preemergence) of 100%. The pest or weed control at 500 g/ha ([3]; pre-emergence, Preemergence) was 100%, the pest or weed control at 125 g/ha ([4]; 125 g ai/ha) was 100% and the pest or weed control at 500 g/ha ([4]; 500 g ai/ha) was 100%. The pest or weed control at 125 g/ha ([5]; post-emergence, Postemergence) was 100%, the pest or weed control at 500 g/ha ([5]; post-emergence, Postemergence) was 100% and the pest or weed control at 125 g/ha ([5]; pre-emergence, Preemergence) was 100%. For the same compound, the pest or weed control at 500 g/ha ([5]; pre-emergence, Preemergence) was 100%, the pest or weed control at 125 g/ha ([6]; post-emergence, Postemergence) was 100% and the pest or weed control at 500 g/ha ([6]; post-emergence, Postemergence) was 100%. The pest or weed control at 125 g/ha ([6]; pre-emergence, Preemergence) was 100%, the pest or weed control at 500 g/ha ([6]; pre-emergence, Preemergence) was 100% and the plant injury at 125 g/ha ([7]; post-emergence, Postemergence) was 60%. The plant injury at 500 g/ha ([7]; post-emergence, Postemergence) was 70%, the plant injury at 125 g/ha ([7]; pre-emergence, Preemergence) was 20% and the plant injury at 500 g/ha ([7]; pre-emergence, Preemergence) was 50%. For the same compound, the plant injury at 125 g/ha (rice (Oryza sativa)) was 70%, the pest or weed control at 125 g/ha [8] was 90% and the Plant response rating ([9]; 31 g ai/ha) was 70. For the same compound, the Plant response rating ([9]; 62 g ai/ha) was 85, the Plant response rating ([9]; 125 g ai/ha) was 85 and the Plant response rating ([9]; 250 g ai/ha) was 95.
